{"source": "patent US20250170099A1", "about": "“TREATMENT OF POSTNATAL DEPRESSION” (GH RESEARCH IRELAND LIMITED, priority 2022, published 2025)", "key": {"[1]": {"assay": "Pharmacokinetics of 5-MeO-DMT and bufotenine after inhalation", "format": "in vivo, human"}, "human hepatocytes [2]": {"tested_on": "human hepatocytes", "assay": "Metabolite identification in human hepatocytes", "format": "in vitro ADME", "details": "for relative proportion of compounds identified: 5-MeO-DMT 10 μM, up to 120 minutes", "experimental": "All samples were stored at −80° C. (nominal) prior to analysis.\nAppropriate blank and control samples were also analysed. […] (nominal)."}, "human hepatocytes [3]": {"tested_on": "human hepatocytes", "assay": "Metabolic stability in Hμrel human hepatocyte co-culture", "format": "in vitro ADME", "details": "for relative LC/MS peak area: 0 h", "experimental": "The incubations were performed using 1 and 10 μM initial concentrations and sampling at 0, 1, 2, 4, 8, 24, 48, and 72 hours (h) time points. The samples were analysed using UPLC/QE-orbitrap-MS."}, "human plasma protein": {"tested_on": "human plasma protein", "assay": "Binding to human plasma protein (unbound fraction)", "format": "in vitro ADME", "experimental": "Binding to human plasma protein was determined. Reported are the unbound fraction (fu) for three replicates as well as the mean unbound fraction, the standard deviation and the mean % recovery (Table 8)."}}}
{"compound": "CN(C)CCc1c[nH]c2ccc(O)cc12", "note": "[bufotenine, Bufotenine]", "values": [{"measurement": "detection in human serum", "setting": "[1]; 15 minutes after administration of 5-MeO-DMT", "result": "In no case is it detected"}, {"measurement": "bufotenine blood concentration", "setting": "[1]; from 15 min after 5-MeO-DMT inhalation, LLOQ", "result": "< 25", "unit": "pg/mL"}, {"measurement": "relative proportion of compounds identified", "setting": "human hepatocytes [2]", "result": 5, "unit": "%"}]}
{"compound": "COc1ccc2[nH]cc(CCO)c2c1", "note": "[5-methoxytryptophol, 5-Methoxyindole-3-ethanol]", "values": [{"measurement": "presence in subsequent assays", "setting": "human hepatocytes [2]", "result": "repeatedly failed to detect"}, {"measurement": "relative proportion of compounds identified", "setting": "human hepatocytes [2]", "result": 25, "unit": "%"}, {"measurement": "disappearance with stromal cell controls", "setting": "human hepatocytes [3]", "result": "no disappearance"}, {"measurement": "relative LC/MS peak area", "setting": "human hepatocytes [3]; 1 μM, hepatocytes", "result": 100, "unit": "%"}, {"measurement": "relative LC/MS peak area", "setting": "human hepatocytes [3]; 1 μM, stromal cells", "result": 100, "unit": "%"}, {"measurement": "relative LC/MS peak area", "setting": "human hepatocytes [3]; 10 μM, hepatocytes", "result": 100, "unit": "%"}, {"measurement": "relative LC/MS peak area", "setting": "human hepatocytes [3]; 10 μM, stromal cells", "result": 100, "unit": "%"}]}
{"compound": "5-Methoxyindole acetic acid [5-MIAA]", "values": [{"measurement": "presence in subsequent assays", "setting": "human hepatocytes [2]", "result": "predominant metabolite"}, {"measurement": "disappearance with stromal cell controls", "setting": "human hepatocytes [3]", "result": "no disappearance"}, {"measurement": "in vitro intrinsic clearance", "setting": "human hepatocytes [3]; 1 μM, human hepatocytes", "result": 0.15, "unit": "μl/min/million cells"}, {"measurement": "remaining abundance", "setting": "human hepatocytes [3]; 72 h, hepatocytes, 1 and 10 μM", "result": "75-82%"}, {"measurement": "plasma binding (mean fraction unbound)", "setting": "human plasma protein", "result": "~50", "unit": "%"}, {"measurement": "time for removal from circulation by renal clearance", "setting": "human plasma protein; from glomerular filtration rate 90-120 ml/min", "result": "1 to 2", "unit": "h"}]}
{"compound": "CN(C)CCc1c[nH]c2ccc(O[C@@H]3O[C@H](C(=O)O)[C@@H](O)[C@H](O)[C@H]3O)cc12", "note": "[Bufotenine glucuronide]", "values": [{"measurement": "detection in the hepatocyte assay", "setting": "human hepatocytes [2]", "result": "not detected"}]}
{"compound": "COc1ccc2[nH]cc(CC[N+](C)(C)[O-])c2c1", "note": "[5-MeO-DMT-N-oxide]", "values": [{"measurement": "relative proportion of compounds identified", "setting": "human hepatocytes [2]", "result": 1, "unit": "%"}]}
